Patent US20230365571A1, “COMPOUNDS AND COMPOSITIONS AS Sppl2a INHIBITORS” (Novartis AG, priority 2020, published 2023)
pIC50: −log10 of the molar value.

How the values were obtained:
Type in all cases: cell-based
γ-secretase = γ-secretase (Homo sapiens, UniProt P49768); assay: γ-secretase RGA (reporter gene assay, Notch1 substrate) in HEK293 cells; settings: Notch1-VP16-Gal4 substrate, Gal4-luciferase reporter, 24 h, read-out: g-secretase RGA IC50
Source text: The assay is based on the coupling of the proteolytic degradation of a membrane bound synthetic substrate, a VP16-Gal4 fusion protein with Notch1, which migrates to the nucleus upon cleavage, where it activates Gal4 driven expression of luciferase. […] The luciferase dependent-luminescence is plotted against the concentrations of compound to generate a dose response curve, which allows the calculation of the IC50 value. DNA vectors encoding human Notch1-VP16-Gal4 and a Gal4-luciferase reporter were transiently transfected in HEK293 cells, which express γ-secretase components endogenously. In a typical experiment 10 μg plasmid encoding the reporter Gal4-luciferase and 20 μg plasmid encoding the substrate Notch1-VP16-Gal4 were mixed together. The DNA mixture was combined with 107 μl FuGENE® (Promega), 735 μl Opti-MEM® (Life Technologies) and incubated for 5 minutes at RT. To this mixture 20 mL of concentrated HEK293 cells were added and thoroughly mixed. The cell suspension was distributed to a white solid 384 well plate. Within hours, 50 nl of compound in DMSO was stamped into the wells via pintool. […] After incubation at room temperature for 5 min, the plate was transferred to a luminometer and the luminescence was measured. The IC50 was determined by plotting compound concentration vs. normalized luminescence values.

human SPPL2a [1] = target: T1, human SPPL2a (Homo sapiens, UniProt Q8TCT8); assay: Sppl2a TL (translocation) imaging assay in U-2 OS cells; set-up: expressed in transfected cells; settings: U-2 OS cells expressing human SPPL2a and EGFP-TNFα(aa1-76) NTF substrate; 24 h
T1 sequence (Q8TCT8 26-520): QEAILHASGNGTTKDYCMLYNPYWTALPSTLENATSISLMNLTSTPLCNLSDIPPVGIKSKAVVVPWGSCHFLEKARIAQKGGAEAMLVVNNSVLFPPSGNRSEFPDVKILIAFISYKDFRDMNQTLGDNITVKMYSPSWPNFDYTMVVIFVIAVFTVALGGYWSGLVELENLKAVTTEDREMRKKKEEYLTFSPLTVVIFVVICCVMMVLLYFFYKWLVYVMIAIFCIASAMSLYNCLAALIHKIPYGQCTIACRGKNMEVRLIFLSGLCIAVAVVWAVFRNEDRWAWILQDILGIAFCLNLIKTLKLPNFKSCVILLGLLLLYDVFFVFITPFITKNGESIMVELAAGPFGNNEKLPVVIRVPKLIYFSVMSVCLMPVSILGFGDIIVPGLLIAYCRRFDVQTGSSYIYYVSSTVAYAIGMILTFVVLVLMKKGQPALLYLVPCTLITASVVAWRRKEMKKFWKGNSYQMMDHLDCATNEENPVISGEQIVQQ
Method in brief: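 U-2 OS cells stably expressing human SPPL2a plus doxycycline-induced EGFP-TNFα(aa1-76) NTF, treated 24 h at 37 °C with inhibitor (100 μM–1 nM, 11 points, 0.9% DMSO, 5 μg/mL doxycycline). Imaging of nuclear-minus-cytoplasmic EGFP intensity; % inhibition versus 0.5 μM LY-411,575 and DMSO, IC50 by nonlinear regression; CC50 from cell count.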

human SPPL2a [2] = target: T1, human SPPL2a; assay: Sppl2a RGA (reporter gene assay) in HEK293 cells; set-up: expressed in transfected cells; host or cells: HEK293 (transient); settings: NT-TNF-VP16-Gal4 substrate, Gal4-luciferase reporter, 24 h
Method in brief: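 HEK293 cells transiently co-transfected with human SPPL2a, NT-TNF-VP16-Gal4 substrate and Gal4-luciferase reporter, compound added within 5 h. After 24 h at 37 °C, luciferase luminescence measured; IC50 from concentration versus normalized luminescence.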

Sppl2a CD74 = target: T2, Sppl2a CD74 (Mus musculus, UniProt Q9JJF9); assay: CD74/p8 mouse whole blood assay, flow cytometry format; settings: Balb/c mouse whole blood, 5 h, CD74 signal on gated live B cells
T2 construct: Mouse whole blood Balb/c mice (sodium citrate) was ordered by Bioreclamation LLC; tissue Bioreclamation LLC
T2 sequence (Q9JJF9 26-523): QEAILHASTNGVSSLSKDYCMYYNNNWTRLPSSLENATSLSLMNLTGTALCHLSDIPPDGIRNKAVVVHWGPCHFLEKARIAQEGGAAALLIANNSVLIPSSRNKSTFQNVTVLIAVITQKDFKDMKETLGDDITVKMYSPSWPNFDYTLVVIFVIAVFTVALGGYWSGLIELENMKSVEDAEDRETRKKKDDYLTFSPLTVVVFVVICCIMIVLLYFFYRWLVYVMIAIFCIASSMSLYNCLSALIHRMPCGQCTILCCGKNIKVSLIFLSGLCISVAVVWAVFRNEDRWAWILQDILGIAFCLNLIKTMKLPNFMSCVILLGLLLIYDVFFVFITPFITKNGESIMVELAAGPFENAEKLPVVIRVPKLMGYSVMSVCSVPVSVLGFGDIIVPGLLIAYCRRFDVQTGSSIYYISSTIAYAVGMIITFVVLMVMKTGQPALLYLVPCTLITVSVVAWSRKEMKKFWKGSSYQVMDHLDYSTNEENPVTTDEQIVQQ
Method in brief: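 Balb/c mouse whole blood (citrate) incubated 5 h at 37 °C with compounds, 11-point dilution from 30 μM top. After RBC lysis, live B220+ B cells stained intracellularly for CD74 (FITC) and analysed by flow cytometry. IC50 fitted from CD74 median fluorescence intensity.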

| Compound | pIC50 (γ-secretase) | pIC50 (human SPPL2a [1]) | pIC50 (human SPPL2a [2]) | pIC50 (Sppl2a CD74) |
| --- | --- | --- | --- | --- |
| 3,4-Dimethyl-N- ((R)-2-(((S)-11- oxo-2,3,10,11- tetrahydro- 1H,5H- benzo[d]pyrazolo [1,2- a][1,2]diazepin- 10- yl)carbamoyl)pen- tyl)isoxazole-5- carboxamide [Example 33] | < 5.00 | 7.43 | 8.15 | – |
| Cc1nc(C(=O)NCC(F)F)sc1C(=O)NC[C@H](C(=O)N[C@@H]1C(=O)N2CCCN2Cc2ccccc21)C1CC1 [Example 6, N^5-((R)-2-Cyclopropyl-3-oxo-3-(((S)-11-oxo-2,3,10,11-tetrahydro-1H,5H-benzo[d]pyrazolo [1,2-a][1,2]diazepin-10-yl)amino)propyl)-N^2-(2,2-difluoroethyl)-4-methylthiazole-2,5-dicarboxamide] | – | 8.70 | 8.70 | 5.81 |
| CC[C@H](CNC(=O)c1sc(C2CC2)nc1C)C(=O)N[C@@H]1C(=O)N2CCCN2Cc2ccccc21 [Example 47, 2-Cyclopropyl-4-methyl-N-((R)-2-(((S)-11-oxo-2,3,10,11-tetrahydro-1H,5H-benzo[d]pyrazolo [1,2-a][1,2]diazepin-10-yl)carbamoyl)butyl) thiazole-5-carboxamide] | – | 7.08 | 7.39 | 6.13 |
| Cc1nc(C(=O)NC(C)C)sc1C(=O)NC[C@@H](C)C(=O)N[C@@H]1C(=O)N2CCCN2Cc2ccccc21 [Example 24, N^2-Isopropyl-4-methyl-N^5-((R)-2-methyl-3-oxo-3-(((S)-11-oxo-2,3,10,11-tetrahydro-1H,5H-benzo[d]pyrazolo [1,2-a][1,2]diazepin-10-yl)amino)propyl) thiazole-2,5-dicarboxamide] | – | 7.68 | 7.48 | 5.78 |
| CC(C)C(=O)Nc1cc(NC(=O)C[C@H](C(=O)N[C@@H]2C(=O)N3CC4(CC4)CN3C(=O)c3ccccc32)C2CC2)n(C)n1 [Example 93, (S)-2-Cyclopropyl-N^1-((S)-5,11-dioxo-10,11-dihydro-1H,3H,5H-spiro[benzo[d]pyrazolo[1,2-a][1,2]diazepine-2,1′-cyclopropan]-10-yl)-N^4-(3-isobutyramido-1-methyl-1H-pyrazol-5-yl)succinamide] | – | 7.92 | 6.77 | 5.95 |
| CNC(=O)c1nc(C)c(C(=O)NC[C@@H](C)C(=O)N[C@@H]2C(=O)N3CCCN3Cc3ccccc32)s1 [Example 1, N^2,4-dimethyl-N^5—((R)-2-methyl-3-oxo-3-(((S)-11-oxo-2,3,10,11-tetrahydro-1H,5H-benzo[d]pyrazolo[1,2-a][1,2]diazepin-10-yl)amino)propyl)thiazole-2,5-dicarboxamide] | – | 7.62 | 7.54 | 6.45 |
| CC[C@H](CNC(=O)c1c(C)noc1C(F)(F)F)C(=O)N[C@@H]1C(=O)N2CCCN2Cc2ccccc21 [Example 17, 3-Methyl-N-((R)-2-(((5)-11-oxo-2,3,10,11-tetrahydro-1H,5H-benzo[d]pyrazolo [1,2-a][1,2]diazepin-10-yl)carbamoyl)butyl)-5-(trifluoromethyl) isoxazole-4-carboxamide] | – | 7.96 | 8.30 | 5.63 |
| COCc1nc(C)c(C(=O)NC[C@H](C(=O)N[C@@H]2C(=O)N3CCCN3Cc3ccccc32)C(F)(F)F)s1 [Example 52, 2-(Methoxymethyl)-4-methyl-N-((R)-3,3,3-trifluoro-2-(((S)-11-oxo-2,3,10,11-tetrahydro-1H,5H-benzo[d]pyrazolo [1,2-a][1,2]diazepin-10-yl)carbamoyl)pro-pyl)thiazole-5-carboxamide] | – | 6.93 | 7.52 | 6.83 |
| C[C@H](CC(=O)Nc1cc(-c2ccccn2)nn1C)C(=O)N[C@@H]1C(=O)N2CCCN2Cc2ccccc21 [Example 94, (R)-2-Methyl-N^4-(1-methyl-3-(pyridin-2-yl)-1H-pyrazol-5-yl)-N^1-((S)-11-oxo-2,3,10,11-tetrahydro-1H,5H-benzo[d]pyrazolo [1,2-a][1,2]diazepin-10-yl)succinamide] | – | 7.92 | 7.47 | 5.60 |
| Cc1nc(C(=O)NCC(F)F)sc1C(=O)NC[C@@H](C)C(=O)N[C@@H]1C(=O)N2CCCN2Cc2ccccc21 [Example 21, N^2-(2,2-Difluoroethyl)-4-methyl-N^5-((R)-2-methyl-3-oxo-3-(((S)-11-oxo-2,3,10,11-tetrahydro-1H,5H-benzo[d]pyrazolo [1,2-a][1,2]diazepin-10-yl)amino)propyl) thiazole-2,5-dicarboxamide] | – | 7.89 | 8.15 | 5.23 |
| Cc1nc(NC(=O)C(C)C)sc1C(=O)NC[C@@H](C)C(=O)N[C@@H]1C(=O)N2CCCN2Cc2ccccc21 [Example 4, 2-Isobutyramido-4-methyl-N-((R)-2-methyl-3-oxo-3-(((S)-11-oxo-2,3,10,11-tetrahydro-1H,5H-benzo[d]pyrazolo [1,2-a][1,2]diazepin-10-yl)amino)propyl) thiazole-5-carboxamide] | – | 9.00 | 7.92 | 7.00 |
| CC(C)NC(=O)c1ncc(NC(=O)C[C@@H](C)C(=O)N[C@@H]2C(=O)N3CCCN3Cc3ccccc32)s1 [Example 91, (R)-N^4-(2-(Isopropylcarba-moyl)thiazol-5-yl)-2-methyl-N^1-((S)-11-oxo-2,3,10,11-tetrahydro-1H,5H-benzo[d]pyrazolo [1,2-a][1,2]diazepin-10-yl)succinamide] | – | 7.96 | 7.62 | 6.30 |
| Cc1nc(C(=O)NC(C)C)sc1C(=O)NC[C@H](C(=O)N[C@@H]1C(=O)N2CCCN2Cc2ccccc21)C(F)(F)F [Example 14, N^2-Isopropyl-4-methyl-N^5-((R)-3,3,3-trifluoro-2-(((S)-11-oxo-2,3,10,11-tetrahydro-1H,5H-benzo[d]pyrazolo [1,2-a][1,2]diazepin-10-yl)carbamoyl)pro-pyl)thiazole-2,5-dicarboxamide] | – | 8.15 | 8.52 | 6.57 |
| CC[C@H](CNC(=O)c1sc(-c2cnn(C(F)F)c2)nc1Cl)C(=O)N[C@@H]1C(=O)N2CC3(CC3)CN2C(=O)c2ccccc21 [Example 45, 4-Chloro-2-(1-(difluoromethyl)-1H-pyrazol-4-yl)-N-((R)-2-(((S)-5,11-dioxo-10,11-dihydro-1H,3H,5H-spiro[benzo[d]pyr-azolo[1,2-a][1,2]diazepine-2,1′-cyclopropan]-10-yl)carbamoyl)butyl) thiazole-5-carboxamide] | – | 7.11 | 7.07 | 5.60 |
